Patent publication EP0790989B1, “CERTAIN SUBSTITUTED BENZYLAMINE DERIVATIVES; A NEW CLASS OF NEUROPEPTIDE Y1 SPECIFIC LIGANDS” (PFIZER INC., priority 1994, dated 1996)
Structures can show the parent of a compound that is named as a salt.

target: T1, human NPY1 receptors (Homo sapiens, UniProt P25929); test: Assay for Human NPY1 receptor binding activity ([125I]PYY binding to SK-N-MC cells); settings: IC50, [125I]PYY (~50 pM) binding to confluent SK-N-MC cells, 3 hour incubation at room temperature
T1 construct: SK-N-MC cells were purchased from ATCC (Rockville, MD); host or cells: SK-N-MC cells (human neuroepithelioma line), intact confluent monolayers
T1 sequence (P25929 1-384): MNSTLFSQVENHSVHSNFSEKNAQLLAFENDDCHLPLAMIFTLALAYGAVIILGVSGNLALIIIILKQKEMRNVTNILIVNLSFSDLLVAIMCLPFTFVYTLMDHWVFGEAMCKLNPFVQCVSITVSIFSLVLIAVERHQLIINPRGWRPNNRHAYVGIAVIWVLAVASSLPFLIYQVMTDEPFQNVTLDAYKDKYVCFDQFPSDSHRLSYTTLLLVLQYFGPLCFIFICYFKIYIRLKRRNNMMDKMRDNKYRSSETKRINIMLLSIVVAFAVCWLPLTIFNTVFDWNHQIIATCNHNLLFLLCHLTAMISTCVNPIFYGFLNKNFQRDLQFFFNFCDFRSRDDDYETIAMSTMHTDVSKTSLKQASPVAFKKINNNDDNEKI
Protocol: The procedure used is similar to that described by Gordon et al. (J. Neurochem. 55:506-513, 1990). SK-N-MC cells were purchased from ATCC (Rockville, MD). Cells were maintained at 37°C and 5% CO2 in Dulbecco's modified essential media (DMEM) with L-glutamine and 110 mg/L sodium pyruvate, which was supplemented with 10% fetal bovine serum and 25 mM HEPES (pH 7.3). The binding assay was performed in 24-well plates (Falcon) when the cells were confluent. Taking care to not disturb the cells on the bottom of the wells, the media was aspirated, and 0.5 ml of Dulbecco's phosphate buffered saline (DPBS) with calcium and magnesium were added to each well. The DPBS was aspirated and an additional aliquot of DPBS was added and aspirated. To begin the assay, binding buffer consisting of serum-free DMEM containing 0.5% bovine serum albumin, 0.1% bacitracin and 0.1 mM phenylmethylsulfonylfluoride was added to each well. The cells and the binding buffer preincubated for 30 minutes at room temperature, at which point the drug dilution and [^125I]PYY (NEN-DuPont: 50000 -75000 cpm ∼ 50 pM) were added to yield a final volume of 250 ul. Nonspecific binding was defined with […] NPY (porcine or human, Bachem California). After a 3 hour incubation at room temperature, the plates were then put on ice and the wells were aspirated. The cells were washed 4-6 times with 0.5 ml of ice-cold DPBS. A dilute solution of Triton X-100 (1%) was then added to each well. After approximately 1 hour at room temperature, an aliquot from each well was transferred to a 12x75 mm testtube, and the amount of [^125I] was quantitated on a gamma counter with an efficiency of 80-85% (Genesys 5000, Laboratory Technologies). IC50 values were calculated with the non-linear curve fitting program RS/1 (BBN Software Products Corp., Cambridge, MA).

Structure (SMILES) | IC50
CCOc1cccc(C2(N3CCN(c4ccccc4)CC3)CCCCC2)c1 [Compound 9, 1-(3-Ethoxyphenyl)-1-(4-phenylpiperazin-1-yl)-cyclohexane dihydrochloride] | 137 nM
CCOc1cccc(C2(N3CCN(c4ccccc4)CC3)CCC(CC)CC2)c1 (stereo not drawn) [Compound 20, 1-(3-Ethoxyphenyl)-1-(4-phenylpiperazin-1-yl)-4-ethyl-cyclohexane dihydrochloride] | 76 nM
COCOc1cccc(C2(N3CCN(c4ccccc4)CC3)CCC(C)CC2)c1 (stereo not drawn) [Compound 29, 1-(3-Methoxymethoxyphenyl)-1-(4-phenylpiperazin-1-yl)-4-methyl-cyclohexane dihydrochloride] | 39 nM
CCOc1cccc(C2(N3CCN(c4ccccc4)CC3)CCC(C)CC2)c1 (stereo not drawn) [Compound 18, 1-(3-Ethoxyphenyl)-1-(4-phenylpiperazin-1-yl)-4-methyl-cyclohexane dihydrochloride] | 75 nM
CCOc1cccc(C2(N3CCN(c4ccccc4)CC3)CCC(CC)CC2)c1 (stereo not drawn) [Compound 21, 1-(3-Ethoxyphenyl)-1-(4-phenylpiperazin-1-yl)-4-ethyl-cyclohexane dihydrochloride] | 525 nM
COc1cccc(C2(N3CCN(c4ccccc4)CC3)CCC(C)CC2)c1 (stereo not drawn) [Compound 13, 1-(3-Methoxyphenyl)-1-(4-phenylpiperazin-1-yl)-4-methyl-cyclohexane dihydrochloride] | 67 nM
